Read-outs that look alike come from different tables or passages of the source.
Key:
Y5R = target: T1, Y5R (Homo sapiens, UniProt Q15761); test: CaFlux Assay (FLIPR), Y5R; format: cell-based
T1 sequence (Q15761 1-445): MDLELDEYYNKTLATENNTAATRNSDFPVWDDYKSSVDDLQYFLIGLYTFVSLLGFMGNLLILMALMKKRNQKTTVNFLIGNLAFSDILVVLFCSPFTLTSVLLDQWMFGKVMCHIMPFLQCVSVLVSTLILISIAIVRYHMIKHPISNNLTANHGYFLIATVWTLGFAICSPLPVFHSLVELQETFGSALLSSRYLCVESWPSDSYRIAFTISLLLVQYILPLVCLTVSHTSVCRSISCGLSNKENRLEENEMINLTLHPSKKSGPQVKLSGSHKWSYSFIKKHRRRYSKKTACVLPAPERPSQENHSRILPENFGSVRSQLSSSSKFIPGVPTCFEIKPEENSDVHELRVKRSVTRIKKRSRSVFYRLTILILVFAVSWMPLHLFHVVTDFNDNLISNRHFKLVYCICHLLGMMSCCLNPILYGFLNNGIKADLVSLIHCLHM

Y1R = target: T2, Y1R (Homo sapiens, UniProt P25929); test: CaFlux Assay (FLIPR), Y1R; format: cell-based
T2 sequence (P25929 1-384): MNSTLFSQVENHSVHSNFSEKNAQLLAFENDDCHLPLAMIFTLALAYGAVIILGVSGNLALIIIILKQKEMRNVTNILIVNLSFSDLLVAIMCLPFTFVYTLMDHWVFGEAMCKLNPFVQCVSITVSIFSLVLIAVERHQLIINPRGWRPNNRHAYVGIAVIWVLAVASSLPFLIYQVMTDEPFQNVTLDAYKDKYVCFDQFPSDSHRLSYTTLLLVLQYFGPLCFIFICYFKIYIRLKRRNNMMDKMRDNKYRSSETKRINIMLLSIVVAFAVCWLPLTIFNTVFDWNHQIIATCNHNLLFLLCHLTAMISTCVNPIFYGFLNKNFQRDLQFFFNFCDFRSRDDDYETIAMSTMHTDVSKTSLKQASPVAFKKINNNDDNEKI

[1] = FLIPR; read-out: Y5R EC50 (nM) FLIPR
[2] = FLIPR; read-out: Y1R EC50 (nM) FLIPR

| SMILES | EC50 (Y5R; [1]) [nM] | EC50 (Y1R; [2]) [nM] | EC50 (Y5R; read-out: Y5R EC50 (nM) FLIPR; FLIPR) [nM] | EC50 (Y1R; read-out: Y1R EC50 (nM) FLIPR; FLIPR) [nM] |
| --- | --- | --- | --- | --- |
| CC[C@H](C)[C@H](NC(C)=O)C(=O)N[C@@H](CCCCNC(=O)CCOCCOCCOCCOCCOCCOCCOCCOCCOCCOCCOCCOCCOCCOCCOCCOCCOCCOCCOCCOCCOCCOCCOCCOC)C(=O)N1CCN(c2ccc3ncn(CC(=O)N[C@@H](CCCNC(=N)N)C(=O)N[C@@H](Cc4c[nH]cn4)C(=O)N[C@@H](Cc4ccc(O)cc4)C(=O)N[C@@H](CC(C)C)C(=O)N[C@@H](CC(N)=O)C(=O)N[C@@H](Cc4c[nH]c5ccccc45)C(=O)N[C@H](C(=O)N[C@H](C(=O)N[C@@H](CCCNC(=N)N)C(=O)N[C@@H](CCC(N)=O)C(=O)N(C)[C@@H](CCCNC(=N)N)C(=O)N[C@@H](Cc4ccc(O)cc4)C(N)=O)[C@@H](C)O)C(C)C)c(=O)c3c2)CC1 [Example 21] | > 6000 | > 6000 |  |  |
| CCCCCCCCCCCCCCCCCCCC(=O)N[C@@H](CCS(=O)(=O)O)C(=O)N[C@@H](CCS(=O)(=O)O)C(=O)NCCCC[C@H](NC(=O)[C@@H](NC(=O)CCOCCOCCOCCOCCOCCOCCOCCOCCOCCOCCOCCOCCOCCOCCOCCOCCOCCOCCOCCOCCOCCOCCOCCOC)[C@@H](C)CC)C(=O)N1CCN(c2ccc3ncn(CC(=O)N[C@@H](CCCNC(=N)N)C(=O)NC(Cc4c[nH]cn4)C(=O)N[C@@H](Cc4ccc(O)cc4)C(=O)NC(CC(C)C)C(=O)N[C@@H](CC(N)=O)C(=O)NC(Cc4c[nH]c5ccccc45)C(=O)N[C@H](C(=O)N[C@H](C(=O)N[C@@H](CCCNC(=N)N)C(=O)NC(CCC(N)=O)C(=O)N(C)[C@@H](CCCNC(=N)N)C(=O)NC(Cc4ccc(O)cc4)C(N)=O)[C@@H](C)O)C(C)C)c(=O)c3c2)CC1 (stereo partly drawn) [Example 27] | > 6000 | > 6000 |  |  |
| CCCCCCCCCCCCCCCCCCCC(=O)N[C@@H](CCS(=O)(=O)O)C(=O)N[C@@H](CCS(=O)(=O)O)C(=O)NCCCC[C@H](NC(=O)[C@@H](NC(=O)CCOCCOCCOCCOCCOCCOCCOCCOCCOCCOCCOCCOCCOCCOCCOCCOCCOCCOCCOCCOCCOCCOCCOCCOC)[C@@H](C)CC)C(=O)N1CCN(c2ccc3ncn(CC(=O)N[C@@H](CCCNC(N)=O)C(=O)NC(Cc4c[nH]cn4)C(=O)N[C@@H](Cc4ccc(O)cc4)C(=O)NC(CC(C)C)C(=O)N[C@@H](CC(N)=O)C(=O)NC(Cc4c[nH]c5ccccc45)C(=O)N[C@H](C(=O)N[C@H](C(=O)N[C@@H](CCCNC(=N)N)C(=O)NC(CCC(N)=O)C(=O)N(C)[C@@H](CCCNC(=N)N)C(=O)NC(Cc4ccc(O)cc4)C(N)=O)[C@@H](C)O)C(C)C)c(=O)c3c2)CC1 (stereo partly drawn) [Example 28] | 1320 | > 6000 |  |  |
| CCCCCCCCCCCCCCCC(=O)N[C@@H](CCS(=O)(=O)O)C(=O)N[C@@H](CCS(=O)(=O)O)C(=O)NCCCC[C@H](NC(=O)[C@@H](NC(=O)CCOCCOCCOCCOCCOCCOCCOCCOCCOCCOCCOCCOCCOCCOCCOCCOCCOCCOCCOCCOCCOCCOCCOCCOC)[C@@H](C)CC)C(=O)N1CCN(c2ccc3ncn(CC(=O)N[C@@H](CCCNC(=N)N)C(=O)NC(Cc4c[nH]cn4)C(=O)N[C@@H](Cc4ccc(O)cc4)C(=O)NC(CC(C)C)C(=O)N[C@@H](CC(N)=O)C(=O)NC(Cc4c[nH]c5ccccc45)C(=O)N[C@H](C(=O)N[C@H](C(=O)N[C@@H](CCCNC(=N)N)C(=O)NC(CCC(N)=O)C(=O)N(C)[C@@H](CCCNC(=N)N)C(=O)NC(Cc4ccc(O)cc4)C(N)=O)[C@@H](C)O)C(C)C)c(=O)c3c2)CC1 (stereo partly drawn) [Example 29] | > 6000 | > 6000 |  |  |
| CCCCCCCCCCCCCCCCCCCC(=O)NCCCCCC(=O)N[C@H](C(=O)N[C@@H](CCCCNC(=O)CCOCCOCCOCCOCCOCCOCCOCCOCCOCCOCCOCCOCCOCCOCCOCCOCCOCCOCCOCCOCCOCCOCCOCCOC)C(=O)N1CCN(c2ccc3ncn(CC(=O)N[C@@H](CCCNC(=N)N)C(=O)N[C@@H](Cc4c[nH]cn4)C(=O)N[C@@H](Cc4ccc(O)cc4)C(=O)N[C@@H](CC(C)C)C(=O)N[C@@H](CC(N)=O)C(=O)N[C@@H](Cc4c[nH]c5ccccc45)C(=O)N[C@H](C(=O)N[C@H](C(=O)N[C@@H](CCCNC(=N)N)C(=O)N[C@@H](CCC(N)=O)C(=O)N(C)[C@@H](CCCNC(=N)N)C(=O)N[C@@H](Cc4ccc(O)cc4)C(N)=O)[C@@H](C)O)C(C)C)c(=O)c3c2)CC1)[C@@H](C)CC [Example 35] | 1010 | > 6000 |  |  |
| CC[C@H](C)[C@H](NC(=O)[C@H](CCC(=O)O)NC(=O)[C@H](CCC(=O)O)NC(=O)CCCCCCCCCCCCCCC(=O)O)C(=O)N[C@@H](CCCCNC(=O)CCOCCOCCOCCOCCOCCOCCOCCOCCOCCOCCOCCOCCOCCOCCOCCOC)C(=O)N1CCN(c2ccc3ncn(CC(=O)N[C@@H](CCCNC(=N)N)C(=O)N[C@@H](Cc4c[nH]cn4)C(=O)N[C@@H](Cc4ccc(O)cc4)C(=O)N[C@@H](CC(C)C)C(=O)N[C@@H](CC(N)=O)C(=O)N[C@@H](Cc4c[nH]c5ccccc45)C(=O)N[C@H](C(=O)N[C@H](C(=O)N[C@@H](CCCNC(=N)N)C(=O)N[C@@H](CCC(N)=O)C(=O)N(C)[C@@H](CCCNC(=N)N)C(=O)N[C@@H](Cc4ccc(O)cc4)C(N)=O)[C@@H](C)O)C(C)C)c(=O)c3c2)CC1 [Example 54] |  |  | > 6000 | > 6000 |

Reference: patent publication US20110172147A1, “NEUROPEPTIDE-2 RECEPTOR (Y-2R) AGONISTS” (priority 2009, published 2011)
